Reference: patent US6653344B2, “Pharmaceutical preparations containing a dibenzocyclooctane lignan derivative for treatment of neurodegenerative disease” (Elcom Bio Technology Co., Ltd., priority 2000, dated 2003)
Entries after “also recorded” stand apart in the source; their conditions may differ.

How the values were obtained:
[1] = test system: glutamate-damaged primary cultured rat cortical cells; assay: Neuroprotection against glutamate-induced neurotoxicity, cell viability by MTT assay; type: cell-based; design: Viability (%) Pre-treatment / Viability (%) Post-treatment: unit of the concentration uncertain; settings: for Viability: 1 hr before 100 M glutamate, then 24 hr, control 100, glutamate-treated 0; for Viability (%) Pre-treatment: compound 1 µM for 1 hr before 100 µM glutamate (15 min), then 24 hr in DMEM in the absence of compound; for Viability (%) Post-treatment: glutamate 15 min, washed, 24 hr in the presence of compound 1 µM; for neuroprotective activity, post-treatment (in words): post-treatment with lignan after glutamate; for neuroprotective activity, pre-treatment (in words): pre-treatment with lignan before glutamate; for neuroprotective activity against glutamate-induced neurotoxicity (in words): primary cultures of rat cortical cells, L-glutamate
Protocol: Primary cultures of mixed cortical cells containing both neuron and glia were prepared from fetal rats as described previously (Kim Y C, Kim S R, Markelonis G J and Oh T H (1998) Ginsenosides Rb1 and Rg3 protect cultured rat cortical cells from glutamate-induced neurodegeneration. J. Neurosci. Res. 53: 426-432).
The cortical cells were plated onto collagen-coated dishes at a density of 1×10^6 cells/ml. The cultured cells were grown in DMEM supplemented with 10% heat-inactivated fetal calf serum, 1 mM sodium pyruvate, 100 IU/ml pecicillin and 100 μg/ml streptomycin at 37° C. in a humidified atmosphere of 95% air/5% CO2. cultures were allowed to mature for 2 weeks before being used for experiments.
The lignan compounds to be investigated for having neuroprotective activity or not were dissolved in DMSO(within final culture concentration, 0.1%) and diluted with distilled water and by passing the solution through Milliporemembrane (0.22 μm, Millex-GV, USA) to make sterile state. The solution was cultured, by differentiating the concentration and dosed to neuron cells.
Cortical cells directly isolated from […] fetal were cultured for 14 days. The samples to be tested were treated at different concentrations to cultured cells. After one hour, neurotoxicity was induced by treating 100 μM of glutamate. After 24 hours, the survival cell rate were measured by MTT assay to determine neuroprotective activity of the samples.
To culture broth of the cortical cells during being cultured, MTT(5 mg/ml) was added by 10% of the culture broth. The broth was cultured for more 3 hours. The formed formazan was dissolved by DMSO and was assayed absorption at 540 nm ((Mosmann T (1983) Rapid colorimetric assay for cellular growth and survival: Application to proliferation and cytotoxicity assays. J. Immuno. Methods 65: 55-61)
Deoxychizandrin, gomisin N, schizandrin and wuweizisu C, the important dibenzocyclooctane lignans of Schizandra fruit were evaluated by assessing the viability of cultured cortical neurons after treatment with the neurotoxicant, glutamate. […] After cortical cells were cultured for 14 days, test compounds were dosed at different concentrations and after 1 hour neurotoxicity was induced by 100 μM glutamate. After culturing for 24 hours, the neuroprotective activity was measured. The neuroprotective activity of the compounds were measured by MTT assay for assaying the activity of succinate dehydrogenase. […] And the content of formazan is decreased, too. By using this phenomena, cell survival rate can be measured.
We investigated the protective mechanisms of deoxyschizandrin, gomisin N and wuweizisu C in an attempt to determine at which stage these lignans protected neurons from glutamate-induced toxicity. Cultures were pretreated with the lignans for […] exposure to glutamate(pre-treatment). In addition, some cultures were exposed to glutamate in DMEM for 24 hours in the […] of lignans (post-treatment).
Rat Cortical cultures were treated with compounds for 1 hr before exposure to 100 M glutamate and then maintained for 24 hr. Cell viability was measured by the MTT assay. Optical density (OD) of the control and glutamate-treated were 1.18±0.09 and 0.75±0.07, respectively. Viability was calculated as 100×(OD of glutamate+compound-treated−OD of glutamate-treated)/(OD of control−OD of glutamate-treated). Values given represent the mean SD (n=3).
Rat cortical cultures were treated with compounds at the concentration of 1 M for 1 hr before exposure to 100 M glutamate (15 min) and then maintained in DMEM for 24 hr in the absence of compound (Pre-treatment). Some cortical cultures were exposed to glutamate for 15 min, washed and maintained in DMEN for 24 hr in the presence of compund (Posttreatment). Cell viability was measured by the MTT assay. Optical density (OD) of the control and glutamate-treated were 1.18±0.09 and 0.75±0.07, respectively. Viability was calculated as the same as Table 1. Values given represent the mean SD (n=3). […]

[2] = test system: GSH content in glutamate-injured primary cultured rat cortical cells; assay: Measurement of total GSH (GSH+GSSG); type: cell-based; settings: 24 hr; for GSH: compound 1 µM for 1 hr before 100 µM glutamate, control 6.9, glutamate-treated 2.6; for Protection (GSH content): compound 1 M (1 uM) for 1 hr before 100 M glutamate
Protocol: Cells were collected by adding 0.1M potassium phosphate buffer (pH 7.4) to culture-broth-removed remainings from first cultured cortical cells. The collected cells were treated by supersonic wave for 20 seconds and were centrifuged at 4° C. with 3,000 g for 20 minutes to obtain the supernatant.
In test tube, 70 μl solution containing 0.3 mM NADPH and 5 mM DTNB was prepared 0.100 μl of cell supernatant was added and final content 5 units/ml of GSSG-R was added thereto and was reacted. The increase of adsorption was measured at 412 nm for 1 minute. The content of GSH was converted and obtained by comparing the content of GSH with GSH standard. (Tietze F, Enzymatic method for quantative determination of nanogram amounts of total and oxidized glutathione, Anal Biochem 27: 502-522).
In case glutamate is treated to first cultured cortical cells of mice, formation of NO is increased. […] When schizandrin is treated at the 1 μM concentration, it decreased NO content increased by glutamate. […] When deoxyschizandrin, gomisin N and wuweizisu C are treated at 1 uM concentration to first cultured cortical cells toxicity-induced by glutamate, those maintained about 50% of normal state activity of GSH-px and glutathione decreased by glutamate and have protective activity on the activity of antioxidant enzymes.
Rat cortical cultures were treated with compounds at the concentration of 1 M for 1 hr before exposure to 100 M glutamate and then maintained for 24 hr. Values given represent the mean SD (n=3).

| SMILES | Viability ([1]; compound 0.1 μM) [%] | Viability (%) Pre-treatment [1] [%] | Viability ([1]; compound 1.0 μM, 1 µM) [%] | Viability ([1]; compound 1.0 μM, listed as deoxyschzandrin, 1 µM) [%] | Viability ([1]; compound 5.0 μM) [%] | Viability (%) Post-treatment [1] [%] | neuroprotective activity, post-treatment (in words) [1] | neuroprotective activity, pre-treatment (in words) [1] | neuroprotective activity against glutamate-induced neurotoxicity (in words) [1] | GSH [2] [μmol/mg protein] | Protection (GSH content) [2] [%] | Protection (GSH content) ([2]; listed as deoxyschizandrin) | Viability ([1]; compound 1.0 μM, listed as gomisin N, 1 µM) [%] | Protection (GSH content) ([2]; listed as gomisin N) | Viability ([1]; compound 1.0 μM, listed as wuwiewisu C, 1 µM) [%] | Protection (GSH content) ([2]; listed as wuweizisu C) |
| --- | --- | --- | --- | --- | --- | --- | --- | --- | --- | --- | --- | --- | --- | --- | --- | --- |
| COc1cc2c(c(OC)c1OC)-c1c(cc(OC)c(OC)c1OC)C[C@H](C)[C@H](C)C2 [Deoxyschizandrin, deoxyschizandrin] | 11.6 ± 5.1 | 20.1 ± 3.1 | 46.2 ± 6.3 | 46.2 | 45.6 ± 3.1 | 45.9 ± 5.5 | significant neuroprotective activity | not pre-treated | exhibited neuroprotective activities; also recorded: significantly have protective activity | 4.7 ± 1.1 | 48.8 | about 50% | – | – | – | – |
| COc1cc2c(c(OC)c1OC)-c1c(cc3c(c1OC)OCO3)C[C@H](C)[C@H](C)C2 [Gomisin N, gomisin N] | 25.2 ± 4.4 | 45.5 ± 9.8 | 51.3 ± 8.3 | – | 49.2 ± 9.5 | 39.6 ± 6.2 | maintained its activity | maintained its activity | exhibited neuroprotective activities; also recorded: significantly have protective activity | 4.8 ± 1.3 | 51.2 | – | 51.3 | about 50% | – | – |
| COc1c2c(cc3c1-c1c(cc4c(c1OC)OCO4)C[C@H](C)[C@H](C)C3)OCO2 [Wuweizisu C, wuweizisu C] | 30.2 ± 6.3 | 59.6 ± 5.1 | 63.9 ± 5.9 | – | 60.9 ± 9.6 | 19.2 ± 7.8 | not post-treatment | neuroprotective | exhibited neuroprotective activities; also recorded: significantly have protective activity | 4.4 ± 0.9 | 41.9 | – | – | – | 63.9 | about 50% |
